We go through 8 molecules from patent publication US12692249B2, “WDR5 inhibitors and modulators” (Vanderbilt University, priority 2019, dated 2026).

Test [1] concerns MV4:11 human cancer cell lines. The test can be described thus: Cellular viability / anti-proliferative assay, CellTiter-Glo, 5 day protocol. The format is cell-based. The following applies: Homo sapiens, MV4-11, 120 h, MV4:11 cells; 5 day incubation; CellTiter-Glo; mean of at least two replicates; read-out: GI50 on cellular proliferation of MV4:11 human cancer cell lines. The procedure, abridged:
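Luminescent ATP-based viability (CellTiter-Glo) after a 5-day exposure gave GI50 via sigmoidal fitting, averaged over two or more replicates. Compounds spanned 22 two-fold steps down from 30 μM at 0.3% DMSO, on 200 MV-4-11 cells per well grown in IMDM plus 10% FBS.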

A further test deals with WDR5 (Homo sapiens, UniProt P61964). The test can be described thus: TR-FRET competition binding assay, displacement of 10mer-Thr-FAM MLL peptide probe from His-tagged WDR5. The following applies: WDR5-His tag (residues 24-334) 2 nM; 10mer-Thr-FAM 150 nM; 60 min, room temperature; read-out: Ki for Inhibition of WDR5 by TR-FRET assay. A general note: Time-resolved FRET reads energy transfer from a long-lived donor to a nearby acceptor.

The term Ki denotes the dissociation constant of the complex between target and ligand, obtained from inhibition or displacement.

As for `COc1cc(CN2CCN(C)C(=O)C2)c2nccc(N3CCc4c(cc(Cn5ccnc5)cc4-c4cn(C)nc4C(F)(F)F)C3=O)c2c1` [Example 131, 7-((1H-Imidazol-1-yl)methyl)-2-(6-methoxy-8-((4-methyl-3-oxopiperazin-1-yl)methyl)quinolin-4-yl)-5-(1-methyl-3-(trifluoromethyl)-1H-pyrazol-4-yl)-3,4-dihydroisoquinolin-1(2H)-one], the GI50 in test [1] is < 20 nM. For the same molecule, the inhibition constant (Ki) at WDR5 was 0.043 nM.

Turning to `CCc1cc(N2CCN(C3COC3)CC2)c2nc(C)cc(N3CCc4c(cc(Cn5ccnc5)cc4-c4cn(C)nc4C(F)(F)F)C3=O)c2c1` [Example 132, 7-((1H-Imidazol-1-yl)methyl)-2-(6-ethyl-2-methyl-8-(4-(oxetan-3-yl)piperazin-1-yl)quinolin-4-yl)-5-(1-methyl-3-(trifluoromethyl)-1H-pyrazol-4-yl)-3,4-dihydroisoquinolin-1(2H)-one], in test [1], the GI50 is < 20 nM. On WDR5, the inhibitory constant (Ki) came out at 0.03 nM.

Take `COc1cc(CN2CCOCC2)c2nccc(N3CCc4c(cc(Cn5ccnc5)cc4-c4cn(C)nc4C(F)(F)F)C3=O)c2c1` [Example 133, 7-((1H-Imidazol-1-yl)methyl)-2-(6-methoxy-8-(morpholinomethyl)quinolin-4-yl)-5-(1-methyl-3-(trifluoromethyl)-1H-pyrazol-4-yl)-3,4-dihydroisoquinolin-1(2H)-one]: the GI50 in test [1] is < 20 nM. At WDR5, the inhibitory constant (Ki) is 0.035 nM.

Take `CCc1cc(N2CCN3CCOC[C@@H]3C2)c2nc(C)cc(N3CCc4c(cc(Cn5ccnc5)cc4-c4cn(C)nc4C(F)(F)F)C3=O)c2c1` [Example 134, (S)-7-((1H-imidazol-1-yl)methyl)-2-(6-ethyl-8-(hexahydropyrazino[2,1-c][1,4]oxazin-8(1H)-yl)-2-methylquinolin-4-yl)-5-(1-methyl-3-(trifluoromethyl)-1H-pyrazol-4-yl)-3,4-dihydroisoquinolin-1(2H)-one]: the GI50 in test [1] was < 20 nM. In addition, the inhibition constant (Ki) at WDR5 amounted to 0.03 nM.

In the case of `COc1cc(CN2CCN(C)CC2)c2nccc(N3CCc4c(cc(Cn5ccnc5)cc4-c4cn(C)nc4C(F)(F)F)C3=O)c2c1` [Example 135, 7-((1H-Imidazol-1-yl)methyl)-2-(6-methoxy-8-((4-methylpiperazin-1-yl)methyl)quinolin-4-yl)-5-(1-methyl-3-(trifluoromethyl)-1H-pyrazol-4-yl)-3,4-dihydroisoquinolin-1(2H)-one], the GI50 in test [1] was < 20 nM. For the same molecule, at WDR5, the inhibition constant (Ki) was 0.04 nM.

Take `COCc1cc(OC)cc2c(N3CCc4c(cc(Cn5ccnc5)cc4-c4cn(C)nc4C(F)(F)F)C3=O)ccnc12` [Example 136, 7-((1H-Imidazol-1-yl)methyl)-2-(6-methoxy-8-(methoxymethyl)quinolin-4-yl)-5-(1-methyl-3-(trifluoromethyl)-1H-pyrazol-4-yl)-3,4-dihydroisoquinolin-1(2H)-one]: in test [1], the GI50 was < 20 nM. Besides, the inhibitory constant (Ki) at WDR5 is < 0.02 nM.

Take `COc1cc(CN2CCCC2)c2nccc(N3CCc4c(cc(Cn5ccnc5)cc4-c4cn(C)nc4C(F)(F)F)C3=O)c2c1` [Example 138, 7-((1H-Imidazol-1-yl)methyl)-2-(6-methoxy-8-(pyrrolidin-1-ylmethyl)quinolin-4-yl)-5-(1-methyl-3-(trifluoromethyl)-1H-pyrazol-4-yl)-3,4-dihydroisoquinolin-1(2H)-one]: the GI50 in test [1] is < 20 nM. For the same molecule, the Ki at WDR5 was < 0.02 nM.

Take `COc1cc(Cn2ccnc2)c2nccc(N3CCc4c(cc(Cn5ccnc5)cc4-c4cn(C)nc4C(F)(F)F)C3=O)c2c1` [Example 139, 7-((1H-imidazol-1-yl)methyl)-2-(8-((1H-imidazol-1-yl)methyl)-6-methoxyquinolin-4-yl)-5-(1-methyl-3-(trifluoromethyl)-1H-pyrazol-4-yl)-3,4-dihydroisoquinolin-1(2H)-one]: the GI50 in test [1] is < 20 nM. Further, the Ki at WDR5 is < 0.02 nM.
